Laboratory results reported in doi:10.1101/2024.08.19.608619, “Discovery of potent SARS-CoV-2 nsp3 macrodomain inhibitors uncovers lack of translation to cellular antiviral response” (bioRxiv, 2024).
Several values for one entry are separate records, joined by “and”; a condition that tells them apart may be missing. Equal entries are not always repeated. Where two headings read alike, the source gives them in different places.

Assays:
COX1(h) = target: T1, COX1(h) (Homo sapiens, UniProt P23219); experiment: In vitro CEREP profiling, COX1(h); assay type: biochemical; conditions: test compound concentration 10 uM; Enzyme and Cell-based assays
T1 construct: purchased Eurofins Cerep (SafetyScreen44), recognised from the panel format
Description: (§1) Supplement media-1.zip/Safety_Panel_Profile.csv, table | column: perc_inhibition

5-HT2B (h) = target: T2, 5-HT2B (h) (Homo sapiens, UniProt P41595); experiment: In vitro CEREP profiling, 5-HT2B (h) (agonist radioligand); assay type: binding; conditions: test compound concentration 10 uM
T2 construct: purchased Eurofins Cerep (SafetyScreen44), recognised from the panel format
T2 sequence (P41595 whole entry): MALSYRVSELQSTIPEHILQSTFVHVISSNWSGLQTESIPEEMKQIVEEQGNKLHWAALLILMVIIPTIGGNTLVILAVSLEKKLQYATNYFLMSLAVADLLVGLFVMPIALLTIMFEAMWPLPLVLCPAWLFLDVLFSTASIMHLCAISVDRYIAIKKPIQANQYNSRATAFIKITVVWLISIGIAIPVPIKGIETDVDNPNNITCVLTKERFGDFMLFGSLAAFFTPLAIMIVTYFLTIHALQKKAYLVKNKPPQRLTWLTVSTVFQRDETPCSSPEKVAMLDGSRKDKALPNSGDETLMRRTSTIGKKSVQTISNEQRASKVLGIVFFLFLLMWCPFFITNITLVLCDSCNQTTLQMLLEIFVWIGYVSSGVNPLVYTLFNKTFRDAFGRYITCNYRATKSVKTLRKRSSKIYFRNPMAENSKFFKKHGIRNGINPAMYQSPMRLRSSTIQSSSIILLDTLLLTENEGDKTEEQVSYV
Description: as §1

D1 (h) = target: T3, D1 (h) (Homo sapiens, UniProt P21728); experiment: In vitro CEREP profiling, D1 (h) (antagonist radioligand); assay type: binding; conditions: test compound 10 uM
T3 construct: purchased Eurofins Cerep (SafetyScreen44), recognised from the panel format
T3 sequence (P21728 whole entry): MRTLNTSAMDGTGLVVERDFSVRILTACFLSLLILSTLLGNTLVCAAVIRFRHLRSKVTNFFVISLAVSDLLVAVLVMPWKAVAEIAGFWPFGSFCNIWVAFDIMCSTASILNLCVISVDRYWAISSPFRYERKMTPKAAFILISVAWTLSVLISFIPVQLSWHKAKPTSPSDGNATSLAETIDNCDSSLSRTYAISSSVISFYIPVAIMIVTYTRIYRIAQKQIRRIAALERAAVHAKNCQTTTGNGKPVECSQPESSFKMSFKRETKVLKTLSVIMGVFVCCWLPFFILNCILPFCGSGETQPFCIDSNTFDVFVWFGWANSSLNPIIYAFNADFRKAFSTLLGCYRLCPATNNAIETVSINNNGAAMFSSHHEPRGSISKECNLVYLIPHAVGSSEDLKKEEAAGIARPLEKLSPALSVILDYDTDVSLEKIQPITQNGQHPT
Description: as §1

NaV1.5 = NaV1.5 (Homo sapiens, UniProt Q14524); experiment: In vitro NaV1.5 cardiotoxicity; conditions: top test concentration 30 uM
Chain of NaV1.5 (Q14524 whole entry): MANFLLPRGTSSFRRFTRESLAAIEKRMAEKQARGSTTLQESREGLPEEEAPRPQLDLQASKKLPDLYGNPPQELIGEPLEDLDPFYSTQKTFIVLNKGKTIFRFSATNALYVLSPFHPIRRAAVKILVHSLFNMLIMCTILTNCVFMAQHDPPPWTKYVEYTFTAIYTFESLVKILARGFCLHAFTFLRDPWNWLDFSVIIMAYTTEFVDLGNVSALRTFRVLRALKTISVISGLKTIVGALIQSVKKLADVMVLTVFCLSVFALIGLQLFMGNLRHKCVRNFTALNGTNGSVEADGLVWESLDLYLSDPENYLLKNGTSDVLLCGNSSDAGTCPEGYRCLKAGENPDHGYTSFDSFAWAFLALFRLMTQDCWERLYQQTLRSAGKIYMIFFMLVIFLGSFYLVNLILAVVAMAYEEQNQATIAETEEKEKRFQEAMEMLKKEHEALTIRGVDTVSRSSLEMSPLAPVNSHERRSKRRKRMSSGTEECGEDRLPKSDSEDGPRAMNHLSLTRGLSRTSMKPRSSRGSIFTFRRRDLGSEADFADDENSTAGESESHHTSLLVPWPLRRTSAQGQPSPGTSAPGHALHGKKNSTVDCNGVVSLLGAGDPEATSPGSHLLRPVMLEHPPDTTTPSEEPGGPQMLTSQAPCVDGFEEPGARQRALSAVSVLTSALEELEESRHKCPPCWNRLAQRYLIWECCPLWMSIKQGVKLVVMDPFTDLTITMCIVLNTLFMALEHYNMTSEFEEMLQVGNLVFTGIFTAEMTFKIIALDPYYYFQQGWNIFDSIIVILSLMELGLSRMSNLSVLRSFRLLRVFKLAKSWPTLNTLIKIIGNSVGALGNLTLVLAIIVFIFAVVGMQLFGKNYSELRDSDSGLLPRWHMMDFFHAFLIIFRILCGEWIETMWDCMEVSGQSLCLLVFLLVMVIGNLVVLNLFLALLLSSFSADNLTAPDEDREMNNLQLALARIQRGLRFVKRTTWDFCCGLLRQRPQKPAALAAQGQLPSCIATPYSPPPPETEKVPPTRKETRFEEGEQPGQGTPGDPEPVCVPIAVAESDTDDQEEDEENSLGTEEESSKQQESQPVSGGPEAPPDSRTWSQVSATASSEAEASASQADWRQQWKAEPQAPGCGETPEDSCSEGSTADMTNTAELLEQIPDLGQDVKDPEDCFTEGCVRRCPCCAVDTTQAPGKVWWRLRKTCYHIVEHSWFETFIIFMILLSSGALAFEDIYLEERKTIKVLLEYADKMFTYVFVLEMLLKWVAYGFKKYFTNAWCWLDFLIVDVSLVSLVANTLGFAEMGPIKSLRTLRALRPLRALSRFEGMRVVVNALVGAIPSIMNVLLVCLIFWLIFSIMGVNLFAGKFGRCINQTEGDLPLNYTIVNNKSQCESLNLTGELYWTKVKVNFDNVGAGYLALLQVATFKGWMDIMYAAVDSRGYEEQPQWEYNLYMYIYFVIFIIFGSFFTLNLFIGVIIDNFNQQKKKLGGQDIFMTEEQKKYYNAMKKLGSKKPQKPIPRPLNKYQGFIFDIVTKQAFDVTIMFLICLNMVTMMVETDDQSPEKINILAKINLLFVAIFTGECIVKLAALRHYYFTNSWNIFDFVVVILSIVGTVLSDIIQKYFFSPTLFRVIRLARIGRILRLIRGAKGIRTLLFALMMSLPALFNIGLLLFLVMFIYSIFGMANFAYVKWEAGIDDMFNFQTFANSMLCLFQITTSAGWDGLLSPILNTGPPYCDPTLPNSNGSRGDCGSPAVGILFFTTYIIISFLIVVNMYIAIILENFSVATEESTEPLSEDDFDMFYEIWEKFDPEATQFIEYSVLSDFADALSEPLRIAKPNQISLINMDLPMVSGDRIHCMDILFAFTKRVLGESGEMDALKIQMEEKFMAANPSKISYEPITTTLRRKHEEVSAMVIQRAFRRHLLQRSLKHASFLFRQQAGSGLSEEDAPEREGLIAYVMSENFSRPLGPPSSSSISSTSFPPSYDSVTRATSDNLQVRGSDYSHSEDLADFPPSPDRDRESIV
Description: Supplement media-1.zip/Cardiotoxicity.csv, table | column: ic50_rest_state; ic50_use_dep_block; perc_inhibition_rest_state; perc_inhibition_use_dep_block

hERG = hERG (Homo sapiens, UniProt Q12809); experiment: In vitro hERG cardiotoxocity; conditions: for IC50: top test concentration 30 uM
Chain of hERG (Q12809 whole entry): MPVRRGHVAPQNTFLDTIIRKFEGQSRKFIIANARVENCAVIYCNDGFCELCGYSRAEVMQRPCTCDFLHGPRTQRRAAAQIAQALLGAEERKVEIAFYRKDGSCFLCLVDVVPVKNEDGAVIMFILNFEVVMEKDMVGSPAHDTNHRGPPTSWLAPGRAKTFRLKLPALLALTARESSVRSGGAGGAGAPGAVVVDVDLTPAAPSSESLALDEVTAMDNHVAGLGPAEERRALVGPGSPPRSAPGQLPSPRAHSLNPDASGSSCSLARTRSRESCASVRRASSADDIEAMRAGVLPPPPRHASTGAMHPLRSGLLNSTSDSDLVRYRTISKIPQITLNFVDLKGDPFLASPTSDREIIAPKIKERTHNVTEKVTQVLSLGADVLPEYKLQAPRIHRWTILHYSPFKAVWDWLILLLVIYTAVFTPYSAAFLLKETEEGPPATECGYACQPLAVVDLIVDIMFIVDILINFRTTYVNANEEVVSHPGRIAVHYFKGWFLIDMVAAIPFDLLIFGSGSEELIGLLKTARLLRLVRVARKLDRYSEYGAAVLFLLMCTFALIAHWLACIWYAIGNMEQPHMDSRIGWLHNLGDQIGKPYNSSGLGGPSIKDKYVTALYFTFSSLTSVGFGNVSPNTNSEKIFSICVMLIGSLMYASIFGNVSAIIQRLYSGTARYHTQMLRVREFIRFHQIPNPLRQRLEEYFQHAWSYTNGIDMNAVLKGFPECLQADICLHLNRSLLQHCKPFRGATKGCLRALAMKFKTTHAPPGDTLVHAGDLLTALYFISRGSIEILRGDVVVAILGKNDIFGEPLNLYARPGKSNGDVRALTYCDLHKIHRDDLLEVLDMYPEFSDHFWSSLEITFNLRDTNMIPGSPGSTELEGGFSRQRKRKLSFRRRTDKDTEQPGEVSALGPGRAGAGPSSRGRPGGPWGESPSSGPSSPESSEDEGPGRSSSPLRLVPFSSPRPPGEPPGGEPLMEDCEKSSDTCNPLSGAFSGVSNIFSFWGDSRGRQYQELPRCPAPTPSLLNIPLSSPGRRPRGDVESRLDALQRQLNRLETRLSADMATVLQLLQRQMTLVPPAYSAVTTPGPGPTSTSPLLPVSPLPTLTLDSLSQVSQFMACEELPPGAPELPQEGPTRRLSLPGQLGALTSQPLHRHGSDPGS
Description: Supplement media-1.zip/Cardiotoxicity.csv, table | column: ic50; perc_inhibition_top_conc

M1 (h) = target: T4, M1 (h) (Homo sapiens, UniProt P11229); experiment: In vitro CEREP profiling, M1 (h) (antagonist radioligand); assay type: binding; conditions: test compound concentration 10 uM
T4 construct: purchased Eurofins Cerep (SafetyScreen44), recognised from the panel format
T4 sequence (P11229 1-460): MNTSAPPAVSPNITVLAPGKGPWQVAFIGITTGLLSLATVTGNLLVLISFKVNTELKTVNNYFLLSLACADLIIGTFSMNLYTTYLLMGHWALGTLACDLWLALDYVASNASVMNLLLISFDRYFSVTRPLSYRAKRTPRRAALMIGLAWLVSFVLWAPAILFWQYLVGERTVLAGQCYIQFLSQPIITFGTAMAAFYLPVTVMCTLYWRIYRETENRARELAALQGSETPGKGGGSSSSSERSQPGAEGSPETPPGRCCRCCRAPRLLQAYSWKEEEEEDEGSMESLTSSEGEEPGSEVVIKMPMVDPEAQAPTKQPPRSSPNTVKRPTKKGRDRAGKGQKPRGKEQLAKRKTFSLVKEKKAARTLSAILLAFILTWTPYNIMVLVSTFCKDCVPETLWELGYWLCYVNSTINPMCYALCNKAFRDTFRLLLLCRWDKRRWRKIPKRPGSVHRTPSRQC
Description: as §1

[1] = test system: SARS-CoV-2, isolate USA-WA1/2020; experiment: microbe, parasite or virus in culture; assay type: cell-based; conditions: HeLa-ACE2 SARS-CoV-2 antiviral effect without P-gp inhibitor; for EC50: read-out: ec50; for EC90: read-out: ec90
NMDA = experiment: In vitro CEREP profiling, NMDA (antagonist radioligand); assay type: binding; conditions: test compound concentration 10 uM
Description: as §1

H2 (h) = target: T5, H2 (h) (Homo sapiens, UniProt P25021); experiment: In vitro CEREP profiling, H2 (h) (antagonist radioligand); assay type: binding; conditions: test compound concentration 10 uM
T5 construct: purchased Eurofins Cerep (SafetyScreen44), recognised from the panel format
T5 sequence (P25021 whole entry): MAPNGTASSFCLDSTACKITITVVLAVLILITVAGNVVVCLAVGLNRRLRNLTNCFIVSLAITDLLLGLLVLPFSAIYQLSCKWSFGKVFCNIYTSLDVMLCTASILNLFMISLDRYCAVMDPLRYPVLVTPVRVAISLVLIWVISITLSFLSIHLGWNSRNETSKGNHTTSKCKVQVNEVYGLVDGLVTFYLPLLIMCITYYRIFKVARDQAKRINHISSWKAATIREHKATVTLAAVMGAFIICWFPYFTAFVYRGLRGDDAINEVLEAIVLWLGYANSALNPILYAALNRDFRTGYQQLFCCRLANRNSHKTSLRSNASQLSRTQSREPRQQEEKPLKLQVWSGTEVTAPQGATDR
Description: as §1

[2] = target: T6, Potassium Channel hERG (human) (Homo sapiens, UniProt Q12809); experiment: In vitro CEREP profiling, Potassium Channel hERG (human)- [3H] Dofetilide; assay type: binding; conditions: test compound concentration 10 uM
T6 construct: purchased Eurofins Cerep (SafetyScreen44), recognised from the panel format
Description: as §1

[3] = target: T7, norepinephrine transporter (h) (Homo sapiens, UniProt P23975); experiment: In vitro CEREP profiling, norepinephrine transporter (h) (antagonist radioligand); assay type: binding; conditions: test compound concentration 10 uM
T7 construct: purchased Eurofins Cerep (SafetyScreen44), recognised from the panel format
Description: as §1

[4] = In vitro rat hepatocyte stability; assay type: in vitro ADME
Description: (§2) Supplement media-1.zip/Hepatocyte_Stability.csv, table | column: clint; t_half

mu (MOP) (h) = target: T8, mu (MOP) (h) (Homo sapiens, UniProt P35372); experiment: In vitro CEREP profiling, mu (MOP) (h) (agonist radioligand); assay type: binding; conditions: test compound concentration 10 uM
T8 construct: purchased Eurofins Cerep (SafetyScreen44), recognised from the panel format
Description: as §1

5-HT transporter (h) = target: T9, 5-HT transporter (h) (Homo sapiens, UniProt P31645); experiment: In vitro CEREP profiling, 5-HT transporter (h) (antagonist radioligand); conditions: test compound concentration 10 uM
T9 construct: purchased Eurofins Cerep (SafetyScreen44), recognised from the panel format
T9 sequence (P31645 whole entry): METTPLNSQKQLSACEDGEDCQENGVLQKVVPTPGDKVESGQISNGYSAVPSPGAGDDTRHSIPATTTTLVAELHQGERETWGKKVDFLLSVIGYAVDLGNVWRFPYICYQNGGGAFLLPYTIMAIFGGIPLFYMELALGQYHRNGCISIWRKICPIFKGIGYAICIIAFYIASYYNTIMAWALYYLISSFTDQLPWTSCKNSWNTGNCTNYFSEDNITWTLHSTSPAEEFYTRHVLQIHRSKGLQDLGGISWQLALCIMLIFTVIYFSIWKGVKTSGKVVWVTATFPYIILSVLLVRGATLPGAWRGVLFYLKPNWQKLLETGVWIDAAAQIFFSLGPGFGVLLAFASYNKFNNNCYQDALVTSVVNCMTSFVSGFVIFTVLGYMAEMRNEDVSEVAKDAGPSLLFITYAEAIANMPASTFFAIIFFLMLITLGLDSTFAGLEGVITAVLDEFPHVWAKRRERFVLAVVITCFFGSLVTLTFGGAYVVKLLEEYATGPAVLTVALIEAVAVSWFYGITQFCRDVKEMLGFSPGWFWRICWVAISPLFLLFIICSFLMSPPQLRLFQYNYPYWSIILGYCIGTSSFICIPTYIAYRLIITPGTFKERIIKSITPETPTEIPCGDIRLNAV
Description: as §1

5-HT1A (h) = target: T10, 5-HT1A (h) (Homo sapiens, UniProt P08908); experiment: In vitro CEREP profiling, 5-HT1A (h) (agonist radioligand); assay type: binding; conditions: test compound concentration 10 uM
T10 construct: purchased Eurofins Cerep (SafetyScreen44), recognised from the panel format
T10 sequence (P08908 1-422): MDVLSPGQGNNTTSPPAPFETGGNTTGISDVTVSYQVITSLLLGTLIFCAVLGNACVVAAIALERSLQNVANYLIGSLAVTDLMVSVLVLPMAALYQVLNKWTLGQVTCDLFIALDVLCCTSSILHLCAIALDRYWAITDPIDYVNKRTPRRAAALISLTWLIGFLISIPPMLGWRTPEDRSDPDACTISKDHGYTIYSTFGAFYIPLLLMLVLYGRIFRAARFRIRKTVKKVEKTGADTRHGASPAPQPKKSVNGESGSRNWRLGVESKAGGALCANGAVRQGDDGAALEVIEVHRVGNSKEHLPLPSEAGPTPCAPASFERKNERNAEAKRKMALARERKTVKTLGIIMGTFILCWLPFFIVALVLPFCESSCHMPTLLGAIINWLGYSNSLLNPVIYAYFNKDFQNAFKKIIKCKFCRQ
Description: as §1

[5] = In vitro mouse hepatocyte stability; assay type: in vitro ADME
Description: as §2

[6] = Hepatic microsomal stability, HLM; assay type: in vitro ADME, human; conditions: In vitro human liver microsomal stability; for perc_remaining_no_cofactor: no cofactor
[7] = NaV1.5, rest state, read-out: ic50_rest_state
[8] = NaV1.5, use dependent block, read-out: ic50_use_dep_block
[9] = maximum measured response of dose series
[10] = minimum measured response of dose series

| Structure (SMILES) | perc_inhibition: % inhibition of control enzyme activity, COX1(h) (COX1(h)) | perc_inhibition (% inhibition of the binding of a ligand specific for each target) (5-HT2B (h)) | perc_inhibition (% inhibition of the binding of a ligand specific for each target) (D1 (h)) | perc_inhibition_rest_state (NaV1.5; NaV1.5, rest state) | IC50 (NaV1.5; [7]) | perc_inhibition_use_dep_block (NaV1.5; NaV1.5, use dependent block) | IC50 (NaV1.5; [8]) | IC50 (hERG) | perc_inhibition (% inhibition of the binding of a ligand specific for each target) (M1 (h)) | perc_max_measured ([1]; maximum measured response) | perc_max_measured [1, 9] | perc_min_measured ([1]; minimum measured response) | perc_min_measured [1, 10] | EC50 [1] | EC90 [1] | perc_inhibition (% inhibition of the binding of a ligand specific for each target) (NMDA) | perc_inhibition (% inhibition of the binding of a ligand specific for each target) (H2 (h)) | perc_inhibition (% inhibition of the binding of a ligand specific for each target) [2] | perc_inhibition (% inhibition of the binding of a ligand specific for each target) [3] | clint [4] | further results |
| --- | --- | --- | --- | --- | --- | --- | --- | --- | --- | --- | --- | --- | --- | --- | --- | --- | --- | --- | --- | --- | --- |
| CNCc1cc(-c2cc3c(N[C@@H](c4ccc5c(c4)S(=O)(=O)CCC5)C(C)C)ncnc3[nH]2)co1 [ASAP-0011176] | -6% | -11% | 14% | 10.0% | > 30 µM | 16.0% | > 30 µM | > 30 µM | 47% | 134.366% | 113.346% | 28.123% | 56.361% | 11.6 µM and > 20 µM | > 20 µM | -1% | -3% | 26% | 39% | 15.6 uL/min/1E6 cells | perc_inhibition_top_conc (hERG; at top test concentration 30 uM): 26.0%; t_half [4]: 44.5 min; perc_inhibition (% inhibition of the binding of a ligand specific for each target) (mu (MOP) (h)): -5%; perc_inhibition: % inhibition of the binding of a ligand specific for each target, 5-HT transporter (h) (antagonist radioligand) (5-HT transporter (h)): 24%; perc_inhibition (% inhibition of the binding of a ligand specific for each target) (5-HT1A (h)): 6%; clint [5]: 74.7 uL/min/1E6 cells; t_half [5]: 9.27 min; clint [6]: 133.0 µL/min/mg; perc_remaining [6]: 10.0%; t_half [6]: 12.6 min; perc_remaining_no_cofactor [6]: 95.0% |
| Cn1ncc(-c2cc3c(N[C@@H](c4ccc5c(n4)OCCO5)C(C)(C)C)ncnc3[nH]2)c1C#N [ASAP-0011221] | -14% | -5% | 9% | 17.0% | > 30 µM | 21.0% | > 30 µM | 19.5 µM | 13% | 101.751% | 108.122% | 4.671% | 8.006% | 1.49 µM and 1.6 µM | > 20 µM | 11% | -10% | 36% | 27% | 185.0 uL/min/1E6 cells | t_half [4]: 3.76 min; perc_inhibition (% inhibition of the binding of a ligand specific for each target) (mu (MOP) (h)): 28%; perc_inhibition: % inhibition of the binding of a ligand specific for each target, 5-HT transporter (h) (antagonist radioligand) (5-HT transporter (h)): 2%; perc_inhibition (% inhibition of the binding of a ligand specific for each target) (5-HT1A (h)): 15%; clint [5]: 292.0 uL/min/1E6 cells; t_half [5]: 2.37 min; clint [6]: 283.0 µL/min/mg; perc_remaining [6]: 1.0%; t_half [6]: 5.9 min; perc_remaining_no_cofactor [6]: 85.0% |
